Source: patent US20260274856A1, “COVALENT CEREBLON LIGANDS” (C4 THERAPEUTICS, INC., priority 2023, published 2026)

The molecules below were run against cellular cereblon (CRBN) (Homo sapiens, UniProt Q96SW2) (assay: NanoBRET Target Engagement Assay, competition with pomalidomide tracer in 293T.116 cells). Settings: 2 hours incubation, 293T.116 cells; IP.
For `O=C1CCC(Oc2ccc(C3CCNCC3)c(S(=O)(=O)F)c2)C(=O)N1` (stereo not drawn) [Compound A-38, 5-((2,6-dioxopiperidin-3-yl)oxy)-2-(piperidin-4-yl)benzenesulfonyl fluoride], the “NanoBRET TE 293T.116 CRBN 2 hours IP nM” value was “*** (<= 1 μM is ***)”. For `O=C1CCN(c2ccc(N3CCNCC3)c(OS(=O)(=O)F)c2)C(=O)N1` [Compound A-39, 5-(2,4-dioxotetrahydropyrimidin-1(2H)-yl)-2-(piperazin-1-yl)phenyl sulfurofluoridate], the “NanoBRET TE 293T.116 CRBN 2 hours IP nM” value was “* (>=10 μM is *)”. `O=C1CCC(CNc2cccc(OS(=O)(=O)F)c2)C(=O)N1` (stereo not drawn) [Compound A-40, 3-(((2,6-dioxopiperidin-3-yl)methyl)amino)phenyl sulfurofluoridate] was tested, and the “NanoBRET TE 293T.116 CRBN 2 hours IP nM” value was “* (>=10 μM is *)”.

Same assay, conditions: 6 hours incubation, 293T.116 cells; IP
With `O=C1CCC(Oc2ccc(C3CCNCC3)c(S(=O)(=O)F)c2)C(=O)N1` (stereo not drawn) [Compound A-38, 5-((2,6-dioxopiperidin-3-yl)oxy)-2-(piperidin-4-yl)benzenesulfonyl fluoride] the “NanoBRET TE 293T.116 CRBN 6 hours IP nM” value was “*** (<= 1 μM is ***)”. With `O=C1CCC(CNc2cccc(OS(=O)(=O)F)c2)C(=O)N1` (stereo not drawn) [Compound A-40, 3-(((2,6-dioxopiperidin-3-yl)methyl)amino)phenyl sulfurofluoridate] the “NanoBRET TE 293T.116 CRBN 6 hours IP nM” value was “* (>=10 μM is *)”. For `O=C1CCN(c2ccc(N3CCNCC3)c(OS(=O)(=O)F)c2)C(=O)N1` [drawing 1142], the “NanoBRET TE 293T.116 CRBN 6 hours IP nM” value was “* (>=10 μM is *)”.

Same assay, conditions: 24 hours incubation, 293T.116 cells; IP
`O=C1CCC(Oc2ccc(C3CCNCC3)c(S(=O)(=O)F)c2)C(=O)N1` (stereo not drawn) [Compound A-38, 5-((2,6-dioxopiperidin-3-yl)oxy)-2-(piperidin-4-yl)benzenesulfonyl fluoride] was tested, and the “NanoBRET TE 293T.116 CRBN 24 hours IP nM” value was “*** (<= 1 μM is ***)”. With `O=C1CCC(CNc2cccc(OS(=O)(=O)F)c2)C(=O)N1` (stereo not drawn) [Compound A-40, 3-(((2,6-dioxopiperidin-3-yl)methyl)amino)phenyl sulfurofluoridate] the “NanoBRET TE 293T.116 CRBN 24 hours IP nM” value was “** (<10 μM and >1 μM is **)”. In the case of `O=C1CCN(c2ccc(N3CCNCC3)c(OS(=O)(=O)F)c2)C(=O)N1` [drawing 1166], the “NanoBRET TE 293T.116 CRBN 24 hours IP nM” value is reported as “** (<10 μM and >1 μM is **)”.

Same assay, conditions: NanoBRET TE 293T.116 CRBN 2 hours IC50 nM, 2 hours incubation, 293T.116 cells
In the case of `O=C1CCC(Oc2ccc(C3CCNCC3)c(S(=O)(=O)F)c2)C(=O)N1` (stereo not drawn) [Compound A-38, 5-((2,6-dioxopiperidin-3-yl)oxy)-2-(piperidin-4-yl)benzenesulfonyl fluoride], the IC50 is reported as less than 1000 nM. Molecule `O=C1CCN(c2ccc(N3CCNCC3)c(OS(=O)(=O)F)c2)C(=O)N1` [Compound A-39, 5-(2,4-dioxotetrahydropyrimidin-1(2H)-yl)-2-(piperazin-1-yl)phenyl sulfurofluoridate] has an IC50 greater than 10000 nM. With `O=C1CCC(CNc2cccc(OS(=O)(=O)F)c2)C(=O)N1` (stereo not drawn) [Compound A-40, 3-(((2,6-dioxopiperidin-3-yl)methyl)amino)phenyl sulfurofluoridate] the IC50 was greater than 10000 nM.

Same assay, conditions: NanoBRET TE 293T.116 CRBN 6 hours IC50 nM, 6 hours incubation, 293T.116 cells
For `O=C1CCC(Oc2ccc(C3CCNCC3)c(S(=O)(=O)F)c2)C(=O)N1` (stereo not drawn) [Compound A-38, 5-((2,6-dioxopiperidin-3-yl)oxy)-2-(piperidin-4-yl)benzenesulfonyl fluoride], the IC50 was less than 1000 nM. `O=C1CCC(CNc2cccc(OS(=O)(=O)F)c2)C(=O)N1` (stereo not drawn) [Compound A-40, 3-(((2,6-dioxopiperidin-3-yl)methyl)amino)phenyl sulfurofluoridate] gave an IC50 of 1000 to 10000 nM. In the case of `O=C1CCN(c2ccc(N3CCNCC3)c(OS(=O)(=O)F)c2)C(=O)N1` [drawing 1142], the IC50 is reported as 1000 to 10000 nM.

Same assay, conditions: NanoBRET TE 293T.116 CRBN 24 hours IC50 nM, 24 hours incubation, 293T.116 cells
`O=C1CCC(Oc2ccc(C3CCNCC3)c(S(=O)(=O)F)c2)C(=O)N1` (stereo not drawn) [Compound A-38, 5-((2,6-dioxopiperidin-3-yl)oxy)-2-(piperidin-4-yl)benzenesulfonyl fluoride] was tested, and the IC50 was less than 1000 nM. `O=C1CCC(CNc2cccc(OS(=O)(=O)F)c2)C(=O)N1` (stereo not drawn) [Compound A-40, 3-(((2,6-dioxopiperidin-3-yl)methyl)amino)phenyl sulfurofluoridate] gave an IC50 of 1000 to 10000 nM. `O=C1CCN(c2ccc(N3CCNCC3)c(OS(=O)(=O)F)c2)C(=O)N1` [drawing 1166] gave an IC50 of 1000 to 10000 nM.

Same assay, conditions: read-out: NanoBRET TE 293T.116 CRBN 2 hours Emax
In the case of `O=C1CCC(Oc2ccc(C3CCNCC3)c(S(=O)(=O)F)c2)C(=O)N1` (stereo not drawn) [Compound A-38, 5-((2,6-dioxopiperidin-3-yl)oxy)-2-(piperidin-4-yl)benzenesulfonyl fluoride], the Emax is reported as less than 50%. For `O=C1CCN(c2ccc(N3CCNCC3)c(OS(=O)(=O)F)c2)C(=O)N1` [Compound A-39, 5-(2,4-dioxotetrahydropyrimidin-1(2H)-yl)-2-(piperazin-1-yl)phenyl sulfurofluoridate], the Emax was 50 to 80%. For `O=C1CCC(CNc2cccc(OS(=O)(=O)F)c2)C(=O)N1` (stereo not drawn) [Compound A-40, 3-(((2,6-dioxopiperidin-3-yl)methyl)amino)phenyl sulfurofluoridate], the Emax was 50 to 80%.

Same assay, conditions: read-out: NanoBRET TE 293T.116 CRBN 6 hours Emax
Work on `O=C1CCC(Oc2ccc(C3CCNCC3)c(S(=O)(=O)F)c2)C(=O)N1` (stereo not drawn) [Compound A-38, 5-((2,6-dioxopiperidin-3-yl)oxy)-2-(piperidin-4-yl)benzenesulfonyl fluoride] yielded an Emax of less than 50%. `O=C1CCC(CNc2cccc(OS(=O)(=O)F)c2)C(=O)N1` (stereo not drawn) [Compound A-40, 3-(((2,6-dioxopiperidin-3-yl)methyl)amino)phenyl sulfurofluoridate] was tested, and the Emax was less than 50%. In the case of `O=C1CCN(c2ccc(N3CCNCC3)c(OS(=O)(=O)F)c2)C(=O)N1` [drawing 1142], the Emax is reported as less than 50%.

Same assay, conditions: read-out: NanoBRET TE 293T.116 CRBN 24 hours Emax
`O=C1CCC(Oc2ccc(C3CCNCC3)c(S(=O)(=O)F)c2)C(=O)N1` (stereo not drawn) [Compound A-38, 5-((2,6-dioxopiperidin-3-yl)oxy)-2-(piperidin-4-yl)benzenesulfonyl fluoride] showed an Emax of less than 50%. `O=C1CCC(CNc2cccc(OS(=O)(=O)F)c2)C(=O)N1` (stereo not drawn) [Compound A-40, 3-(((2,6-dioxopiperidin-3-yl)methyl)amino)phenyl sulfurofluoridate] showed an Emax of less than 50%. In the case of `O=C1CCN(c2ccc(N3CCNCC3)c(OS(=O)(=O)F)c2)C(=O)N1` [drawing 1166], the Emax is reported as less than 50%.

What follows are molecules tested against mutant BRAF V600E (Homo sapiens, UniProt P15056, V600E) (assay: BRAF V600E HiBiT Degradation Assay in A375.10 cells). Settings: 2 hours, A375.10 cells; inflection point of the dose-response curve.
`CCN(C)S(=O)(=O)Nc1ccc(F)c(Oc2ccc3ncn([C@@H]4COC5(CCN(C(=O)CN6CCC(c7ccc(C8CCC(=O)NC8=O)cc7OS(=O)(=O)F)CC6)CC5)C4)c(=O)c3c2)c1C#N` (stereo partly drawn) [drawing 1189] was tested, and the “HiBIT-Degradation A375.10 BRAF 2 hours IP nM” value was “*** (<= 1 μM is)”. In the case of `CCN(C)S(=O)(=O)Nc1ccc(F)c(Oc2ccc3ncn([C@H]4COC5(CCN(C(=O)CN6CCC(c7ccc(C8CCC(=O)NC8=O)cc7OS(=O)(=O)F)CC6)CC5)C4)c(=O)c3c2)c1C#N` (stereo partly drawn) [drawing 1190], the “HiBIT-Degradation A375.10 BRAF 2 hours IP nM” value is reported as “*** (<= 1 μM is)”.

Same assay, conditions: read-out: HIBIT-Degradation A375.10 BRAF 2 hours DC50 nM; 2 hours, A375.10 cells
`CCN(C)S(=O)(=O)Nc1ccc(F)c(Oc2ccc3ncn([C@@H]4COC5(CCN(C(=O)CN6CCC(c7ccc(C8CCC(=O)NC8=O)cc7OS(=O)(=O)F)CC6)CC5)C4)c(=O)c3c2)c1C#N` (stereo partly drawn) [drawing 1189] was tested, and the DC50 was 1000 to 10000 nM. Molecule `CCN(C)S(=O)(=O)Nc1ccc(F)c(Oc2ccc3ncn([C@H]4COC5(CCN(C(=O)CN6CCC(c7ccc(C8CCC(=O)NC8=O)cc7OS(=O)(=O)F)CC6)CC5)C4)c(=O)c3c2)c1C#N` (stereo partly drawn) [drawing 1190] has a DC50 of less than 1000 nM.

Same assay, conditions: read-out: HiBIT-Degradation A375.10 BRAF 2 hours Emax
`CCN(C)S(=O)(=O)Nc1ccc(F)c(Oc2ccc3ncn([C@@H]4COC5(CCN(C(=O)CN6CCC(c7ccc(C8CCC(=O)NC8=O)cc7OS(=O)(=O)F)CC6)CC5)C4)c(=O)c3c2)c1C#N` (stereo partly drawn) [drawing 1189] showed an Emax of 60 to 95%. `CCN(C)S(=O)(=O)Nc1ccc(F)c(Oc2ccc3ncn([C@H]4COC5(CCN(C(=O)CN6CCC(c7ccc(C8CCC(=O)NC8=O)cc7OS(=O)(=O)F)CC6)CC5)C4)c(=O)c3c2)c1C#N` (stereo partly drawn) [drawing 1190] showed an Emax of less than 60%.
